Each structure is given as a SMILES string. The source made the active and inactive calls. The rule behind the calls is not given here.

In series [1] the test system is 3T3-L1. Description: Anti-adipogenic activity in MDI-cocktail differentiated mouse 3T3-L1 pre-adipocyte cells assessed as reduction in PPARgamma protein expression at 5 uM measured for 3 to 7 days by immunoblotting analysis. The following applies: time 3-7 day. Format: functional, cell-based.
Series [2] concerns 3T3-L1. Description: Induction of mitochondrial respiration in MDI-cocktail differentiated mouse 3T3-L1 pre-adipocyte cells assessed as increase in oxygen consumption rate at 5 uM incubated for 72 hrs in presence of rotenone/antimycin A mixture by Seahorse XFp flux analyzer. In kind it is functional, cell-based.
Series [3] concerns 3T3-L1. Kind of series: Induction of cell cycle arrest in MDI-cocktail differentiated mouse 3T3-L1 pre-adipocyte cells assessed as reduction in CDK2 protein expression at 5 uM measured after 16 to 24 hrs by immunoblotting analysis. The following applies: time 16-24 hrs. In kind it is functional, cell-based. A general note: Immunoblotting shows a protein as a band on a membrane.

The test system of series [4] is 3T3-L1. Description: Inhibition of MDI-cocktail induced adipogenic differentiation in mouse 3T3-L1 pre-adipocyte cells assessed as reduction in FABP4 protein expression at 0.5 to 5 uM by Western blot analysis. In kind it is functional, cell-based. The following applies: dose 0.5-5 µM.
The test system of series [5] is 3T3-L1. Description: Anti-adipogenic activity in MDI-cocktail differentiated mouse 3T3-L1 pre-adipocyte cells assessed as reduction in adipogenic differentiation at 5 uM measured after 3 to 5 days by Oil Red O staining based microscopic analysis. The following applies: time 3-5 day. Format: functional, cell-based.
For series [6], the system named is 3T3-L1. Kind of series: Activation of AMPK pathway in mouse 3T3-L1 mature adipocyte cells assessed as reversal of 6-(4-(2-(piperidin-1-yl)ethoxy)phenyl)-3-(pyridin-4yl)pyrazolo[1,5-a]pyrimidine induced AMPK inhibition at 5 uM incubated for 24 hrs by immunoblotting analysis. In kind it is cell-based. The following applies: filed as activator.
Series [7] concerns 3T3-L1. Description: Cytotoxicity against mouse 3T3-L1 pre-adipocyte cells assessed as reduction in cell viability at 20 uM incubated for 48 hrs by MTT assay. Format: toxicity, cell-based. The following applies: 3t3-l1, 48 h.
Series [8] has as its system 3T3-L1. Kind of series: Inhibition of MDI-cocktail induced adipogenic differentiation in mouse 3T3-L1 pre-adipocyte cells assessed as reduction in PPARgamma protein expression at 0.5 to 5 uM by Western blot analysis. Format: functional, cell-based. The following applies: dose 0.5-5 µM.
The subject of series [9] is 3T3-L1. Kind of series: Induction of cell cycle arrest in MDI-cocktail differentiated mouse 3T3-L1 pre-adipocyte cells assessed as accumulation of cells at S phase at 3 to 5 uM incubated for 24 hrs by propidium iodide staining based flow cytometry analysis. In kind it is functional. The following applies: dose 3-5 µM. Background: A flow cytometer gives signals particle by particle.

Series [10] relates to C3H 10T1/2. Kind of series: Anti-adipogenic activity in MDI-cocktail differentiated mouse C3H 10T1/2 cells assessed as reduction in adipogenic differentiation at 5 uM measured after 3 to 5 days by Oil Red O staining based microscopic analysis. Format: functional, cell-based. The following applies: time 3-5 day.
The test system of series [11] is 3T3-L1. Description: Upregulation of CII-SDHB protein expression in mouse 3T3-L1 mature adipocytes at 1 to 5 uM incubated for 24 hrs by Western blot analysis. Format: functional, cell-based. The following applies: dose 1-5 µM.
Series [12] deals with 3T3-L1. Kind of series: Inhibition of MDI-cocktail induced adipogenic differentiation in mouse 3T3-L1 pre-adipocyte cells assessed as reduction in CEBPalpha gene expression at 5 uM by qRT-PCR analysis. Format: functional, cell-based.
The test system of series [13] is Mesocricetus auratus. Description: In vivo activation of AMPK in high-fat diet induced Syrian golden hamster model assessed as increase in AMPK phosphorylation at Th172 residue in eWAT at 50 mg/kg, po administered for 7 days by Western blot analysis. Format: functional, organism-based. The following applies: time 7.0 day.

Take `Cc1ccc(-c2cnc(-c3ccc[n+](Cc4cccc(C)c4)c3)o2)cc1.[Br-]`: the outcome in series [1], in series [2], in series [3], in [5], in [6] and in [9] was Active. Further, the result in series [10], in series [11] and in series [13] was Active. In addition, the inhibition result in series [4], in [8] and in [12] was “Active” in each case. In series [7], the Activity result is given as “Non-Toxic”.

(Values after ChEMBL document CHEMBL5634151, “Anti-adipogenic action of a novel oxazole derivative through activation of AMPK pathway” (Eur J Med Chem, 2023).)
